For orientation: IC50 means the concentration that inhibits the measured activity by half.

Series [1] has as its system Rattus norvegicus. As to the kind of experiment: Neurotoxicity in Rattus norvegicus Wistar (rat) assessed as minimal motor impairment at 100 mg/kg, po after 2 hr by rotorod test. It counts as toxicity, organism-based. Also on record: dose 100 mg/kg, route oral. The conditions noted are these: in vivo.
For series [2], the system named is Rattus norvegicus. As to the kind of experiment: Anticonvulsant activity in Rattus norvegicus Wistar (rat) assessed as protection against maximal electroshock-induced seizure at 100 mg/kg, po administered 30 min before electroshock measured for 2 min relative to control. In kind it is functional. (In general: In the maximal electroshock model the usual endpoint is tonic extension of the hind limbs.)

Series [3] relates to Rattus norvegicus. As to the kind of experiment: Neurotoxicity in Rattus norvegicus Wistar (rat) assessed as minimal motor impairment at 100 mg/kg, po after 4 hr by rotorod test. It counts as toxicity, organism-based. Also on record: dose 100 mg/kg, route oral. Particulars: in vivo. A general note: In the rotarod test animals must keep their balance on a rotating rod; call rule not given here.
In series [4] the test system is Rattus norvegicus. As to the kind of experiment: Neurotoxicity in Rattus norvegicus Wistar (rat) assessed as minimal motor impairment at 100 mg/kg, po after 1 hr by rotorod test. It counts as toxicity, organism-based. Further details: dose 100 mg/kg, route oral. The conditions noted are these: in vivo.
The subject of series [5] is Radical scavenging activity. As to the kind of experiment: Antioxidant activity assessed as DPPH free radical scavenging activity at 100 ug/ml after 30 min relative to control. It counts as functional. A general note: The DPPH test is a chemical assay of radical scavenging.
The test system of series [6] is Radical scavenging activity. As to the kind of experiment: Antioxidant activity assessed as DPPH free radical scavenging activity after 30 min. It counts as functional.
Series [7] has as its system Rattus norvegicus. As to the kind of experiment: Neurotoxicity in Rattus norvegicus Wistar (rat) assessed as minimal motor impairment at 100 mg/kg, po after 0.5 hr by rotorod test. In kind it is toxicity, organism-based. Further details: dose 100 mg/kg, route oral. Particulars: in vivo.
In series [8] the test system is Radical scavenging activity. As to the kind of experiment: Antioxidant activity assessed as DPPH free radical scavenging activity at 200 ug/ml after 30 min relative to control. It counts as functional.
Series [9] deals with Radical scavenging activity. As to the kind of experiment: Antioxidant activity assessed as DPPH free radical scavenging activity at 150 ug/ml after 30 min relative to control. In kind it is functional.
Series [10] has as its system Rattus norvegicus. As to the kind of experiment: Neurotoxicity in Rattus norvegicus Wistar (rat) assessed as minimal motor impairment at 100 mg/kg, po after 2 hr by rotorod test relative to control. It counts as toxicity, organism-based. Further details: dose 100 mg/kg, route oral. Particulars: in vivo.

Converted amounts (≈) assume the structure as drawn.

Turning to `C/C(=N\CC1(CC(=O)O)CCCCC1)c1ccccn1`, the Activity result was “Non-toxic” in the series on Rattus norvegicus [1]; 66.45% in the series on Rattus norvegicus [2]; “Non-toxic” in the series on Rattus norvegicus [3]; “Non-toxic” with Rattus norvegicus [4]; 31.1% in series [5]; “Non-toxic” with Rattus norvegicus [7]. Moreover, the figures for the Activity in series [8] and in series [9] were 51.6% and 42.5%, respectively. Further, the IC50 in series [6] worked out at 194.8 µg/mL (≈ 710 µM).
On to `CCOc1ccc(/C=N/CC2(CC(=O)O)CCCCC2)cc1`, for which the Activity amounted to 55.6% in [5], 74.5% in series [8] and 66.4% in series [9]. Further, the IC50 in series [6] stood at 60.5 µg/mL (≈ 199 µM).
For the molecule `O=C(O)CC1(C/N=C/c2c(F)cccc2Cl)CCCCC1`, the Activity was determined as 47.2% in series [5], 69.1% in series [8] and 58% in series [9]. In [6], the IC50 worked out at 104 µg/mL (≈ 334 µM).
The matching figures for `O=C(O)CC1(C/N=C/c2ccccc2Cl)CCCCC1`: 45.1%, 66.4%, 56.7% and 119.4 µg/mL (≈ 406 µM).
The matching figures for `O=C1O[C@H]([C@@H](O)CO)C(O)=C1O` [ASCORBIC ACID]: 74.1%, 99.3%, 86.4% and 8.6 µg/mL (≈ 48.8 µM).
`COc1cc(/C=N/CC2(CC(=O)O)CCCCC2)ccc1O`: the Activity was found to be 57.2% in series [5], 78.2% in series [8] and 64.9% in series [9]. The IC50 in series [6] was 59.6 µg/mL (≈ 195 µM).
For the molecule `C/C(=N\CC1(CC(=O)O)CCCCC1)c1ccc2ccccc2c1`, the Activity with Rattus norvegicus [2] is 0.42%; with Rattus norvegicus [4] it was “Non-toxic”; in series [5] it was 28.5%; in the series with Rattus norvegicus [7], “Non-toxic”; in series [8], 48.4%; in series [9] it was 37.2%. In the series on Rattus norvegicus [10], the Activity was 25%. Moreover, the IC50 entry in series [6] is on record as “Not Active”.
With `C/C(=N\CC1(CC(=O)O)CCCCC1)c1cccc(C#N)c1`, the Activity in the series on Rattus norvegicus [2] is 6.36%; in the series on Rattus norvegicus [4], “Non-toxic”; in [5] it was 30.6%; in the series with Rattus norvegicus [7] it was “Non-toxic”; in [8] it was 49.8%; in [9], 41%. For the same molecule, the Activity with Rattus norvegicus [10] is listed as 25%. For the same molecule, the IC50 result in series [6] was “Not Active”.
For `O=C(O)CC1(C/N=C/c2ccccn2)CCCCC1`, the Activity in series [5] was 40%; in [8], 59.7%; in series [9], 50.3%. Further, in series [6], the IC50 worked out at 151.2 µg/mL (≈ 581 µM).
As for `C/C(=N\CC1(CC(=O)O)CCCCC1)c1c[nH]c2ccccc12`, the Activity result in the series on Rattus norvegicus [1] was “Non-toxic”; in the series with Rattus norvegicus [2], 24.63%; with Rattus norvegicus [4] it was “Non-toxic”; in series [5], 32.7%; with Rattus norvegicus [7] it was “Non-toxic”; in [8] it was 55.8%. Moreover, the Activity turned out to be 43.8% in series [9] and 25% in the series on Rattus norvegicus [10]. For the same molecule, the IC50 in series [6] worked out at 175 µg/mL (≈ 560 µM).
With `O=C(O)CC1(C/N=C/c2ccccc2)CCCCC1`, the Activity in [5] was determined as 30.1%; in [8], 49.8%; in [9] it was 41.3%. The IC50 result in series [6] is on record as “Not Active”.
With `C/C(=N\CC1(CC(=O)O)CCCCC1)c1cccnc1`, the Activity result in the series on Rattus norvegicus [1] was “Non-toxic”; with Rattus norvegicus [2], 65.61%; in the series on Rattus norvegicus [3] it was “Non-toxic”; with Rattus norvegicus [4], “Non-toxic”; in series [5], 30.8%; in the series with Rattus norvegicus [7], “Non-toxic”. Moreover, the Activity in [8] was determined as 51%; in series [9], 42.1%. For the same molecule, in [6], the IC50 was 198.2 µg/mL (≈ 722 µM).
For `C/C=N/CC1(CC(=O)O)CCCCC1`, the values for the Activity in [5], in series [8] and in series [9] were 31.4%, 49.5% and 41%, respectively. In addition, in series [6], the IC50 result is “Not Active”.
`CCOc1ccc(/C(C)=N/CC2(CC(=O)O)CCCCC2)cc1`: the Activity in the series with Rattus norvegicus [2] was 12.74%; in the series with Rattus norvegicus [4], “Non-toxic”; in series [5], 55.8%; in the series with Rattus norvegicus [7] it was “Non-toxic”; in series [8], 74.6%; in [9], 66.7%. Moreover, the Activity in the series on Rattus norvegicus [10] amounted to 25%. Also, in series [6], the IC50 was 60.3 µg/mL (≈ 190 µM).
For `O=C1NC(=O)C(c2ccccc2)(c2ccccc2)N1` [PHENYTOIN], the Activity with Rattus norvegicus [2] is 79.29%; in the series with Rattus norvegicus [7], “Non-toxic”.
For `O=C(O)CC1(C/N=C/c2ccc(F)cc2)CCCCC1`, the results for the Activity in [5], in series [8] and in [9] were 44.7%, 62.8% and 53.8%, respectively. Also, in series [6], the IC50 was determined as 130.5 µg/mL (≈ 471 µM).
Taken in the same sequence, the figures for `COc1ccc(/C=N/CC2(CC(=O)O)CCCCC2)cc1` were 49.6%, 69.5%, 59.8% and 94.2 µg/mL (≈ 326 µM).
The matching figures for `O=C(O)CC1(C/N=C/c2ccccc2O)CCCCC1`: 51%, 71.3%, 60.6% and 80.5 µg/mL (≈ 292 µM).
The matching figures for `C=NCC1(CC(=O)O)CCCCC1`: 30.2%, 48.9%, 40.6% and “Not Active”.

The values above are taken from ChEMBL document CHEMBL3044841, “Synthesis and biological activities of Schiff bases of gabapentin with different aldehydes and ketones: a structureactivity relationship study” (Med Chem Res, 2012).
